Assay results taken from paper PMC6304311 (Influenza and Other Respiratory Viruses, 2018).
Where two headings read alike, the source gives them in different places.

Columns and labels:
[1] = biological target: NA from influenza A(H1N1)pdm09 virus isolates (Influenza A virus, UniProt C7FH46); format: biochemical
[2] = biological target: T1, NA from influenza A(H3N2) virus isolates (Influenza A virus, UniProt V5P6L4); settings: cited from earlier work
[3] = biological target: T1, NA from influenza A(H3N2) virus isolates; format: biochemical
[4] = biological target: T2, NA from influenza A(H1N1) virus isolates (Influenza A virus, UniProt C0LLZ0); format: biochemical
[5] = test system: NA from influenza A(H1N1)pdm09 virus isolates; settings: cited from earlier work; for IC50: read-out: IC50, susceptible reference strain
[6] = biological target: T2, NA from influenza A(H1N1) virus isolates; settings: cited from earlier work
[7] = biological target: NA from influenza B virus isolates (Influenza B virus, UniProt A0A1S5RAG6); format: biochemical
[8] = read-out: IC50, susceptible reference strain

| SMILES | Susceptible [1] | IC50 [2, 8] [nM] | Susceptible [3] | IC50 ([3]; read-out: IC50 Median (range)) [nM] | IC50 ([3]; read-out: IC50 Statistical cutoff (X 0.75 + 3IQR)) [nM] | IC50 ([3]; read-out: IC50 X 0.75 (75th percentile)) [nM] | Susceptible [4] | outlier virus isolates [4] | share of virus isolates with markedly increased IC50 [4] [%] | IC50 [5] [nM] | IC50 [6, 8] [nM] | Susceptible [7] | susceptibility phenotype of reference virus [2] | susceptibility phenotype of reference virus [5] | susceptibility phenotype of reference virus [6] |
| --- | --- | --- | --- | --- | --- | --- | --- | --- | --- | --- | --- | --- | --- | --- | --- |
| CCOC(=O)C1=C[C@@H](OC(CC)CC)[C@H](NC(C)=O)[C@@H](N)C1 [oseltamivir] | susceptible and Yes | 0.21 | susceptible and Yes | 0.05 | 0.15 | 0.06 | susceptible and Yes and No | 2/4 | 97.9 | 0.1 | 0.13 | susceptible and Yes |  |  |  |
| CC(=O)N[C@H]1[C@H]([C@H](O)[C@H](O)CO)OC(C(=O)O)=C[C@@H]1N=C(N)N [zanamivir] | susceptible and Yes |  | susceptible and Yes |  |  |  | susceptible and Yes | 3/4 |  | 0.42 |  |  | susceptible | susceptible | susceptible |
